Source: patent publication US20040097740A1, “Method for producing delta 1-pyrrolines” (priority 2000, published 2004)
Read-outs that look alike come from different tables or passages of the source.

Tests used:
[1] = log P determination by HPLC on reverse-phase column (C 18), EEC Directive 79/831 Annex V.A8; format: physicochemical; details: 43° C.; for chromatographic logP: reverse-phase HPLC column (C 18)
Protocol: The determination is carried out in the acidic range at pH 2.3 using the mobile phases 0.1% aqueous phosphoric acid and acetonitrile; linear gradient from 10% acetonitrile to 90% acetonitrile.

[2] = pH 2.3, pH 2.3, preparation example, 0.1% aqueous phosphoric acid/acetonitrile gradient, read-out: HPLC: log P (pH 2.3)

HPLC: log P (pH 2.3) ([1]; pH 2.3, preparation example, 0.1% aqueous phosphoric acid/acetonitrile gradient)	chromatographic logP [1, 2]	melting point [°C]	chromatographic logP ([1]; pH 2.3, azides of the formula (II), acidic range pH 2.3, read-out: logP*)	chromatographic logP ([1]; pH 2.3, haloketones of the formula (III), acidic range pH 2.3, read-out: logP*)	Structure (SMILES)
2.71	2.72	48			Fc1cccc(F)c1C1=NC(c2ccc(Br)cc2)CC1 (stereo not drawn) [Example I-1, 2-(4-bromophenyl)-5-(2,6-difluorophenyl)-3,4-dihydro-2H-pyrrole]
		64 to 65			O=C(c1c(F)cccc1F)C1CC1c1ccc(Br)cc1 (stereo not drawn) [Example V-1, [2-(4-bromophenyl)cyclopropyl](2,6-difluorophenyl)methanone]
	4.47		4.47		[N-]=[N+]=NC(CCC(=O)c1c(F)cccc1F)c1ccc(Br)cc1 (stereo not drawn) [II-1, 4-(4-bromophenyl)-4-azido-1-(2,6-difluorophenyl)-1-butanone]
	4.52			4.43	O=C(CCC(Cl)c1ccc(Br)cc1)c1c(F)cccc1F (stereo not drawn) [III-1, 4-(4-bromophenyl)-4-chloro-1-(2,6-difluorophenyl)-1-butanone]
		71			O=C(/C=C/c1ccc(Br)cc1)c1c(F)cccc1F [VI-1, (2E)-3-(4-bromophenyl)-1-(2,6-difluorophenyl)-2-propen-1-one]
